Non-standard residues stand in square brackets, D forms with d. No end group written: not given here. Abu = CC[C@H](N)C(=O)O

In test [1] the test system is CNV laser mouse model. Kind of test: CNV laser mouse model, intravitreous injection, choroidal flat mounts. It counts as in vivo, C57 BL/6 female mice. As to conditions: day 14. From the text: Referring now to FIG. 9 is shown in vivo 336 polymer nanoparticle/SP6001 DEAH peptide (“DEAH” disclosed as SEQ ID NO: 2484); Peptide-336 polymer nanoparticles were formulated as previously described and intravitreously injected to test in vivo efficacy. ACNV laser mouse model was used on C57 BL/6 female mice. The mice receive laser eye treatments on day zero, followed by the intravitreous injections. Mice are then perfused with fluorescein labeled dextran on day 14 and choroidal flat mounts (bottom) were analyzed via fluorescence microscopy.
Referring now to FIG. 49 in shown the in vivo effects of microparticle formulations in both the CNV and rho/VEGF model over time. DEAH (SP6001)-336 PBAE nanoparticle formulation made as described previously (“DEAH” disclosed as SEQ ID NO: 2484). […] (Middle) and (Bottom) A genetic model of wet form of age-related macular degeneration in mice used to test long-term effect of microparticles. […] While PLGA is used to form the microparticles used above, other polymers may be used including the synthetic polyesters and polyamides described above. […]

The test system of test [2] is MDA-MB-231 tumor xenograft. Kind of test: MDA-MB-231 breast cancer xenograft, orthotopic, i.p. peptide. On the set-up: species or system SCID mice. As to conditions: mouse, in vivo. From the text:
BMC Cancer 2010; 10:29, and in a breast cancer xenograft model using MDA-MB-231 cells. Koskimaki J E, Karagiannis E D, Rosca E V, Vesuna F, Winnard P T, Jr., Raman V, et al. Peptides derived from type IV collagen, CXC chemokines, and thrombospondin-1 domain-containing proteins inhibit neovascularization and suppress tumor growth in MDA-MB-231 breast cancer xenografts. Neoplasia 2009; 11(12):1285-91.
Following orthotopic inoculation of SCID mice in the mammary fat pad area using 2×10^6 cells, tumors grew to approximately 100 mm^3 in 2 weeks; at that time 100 μL of peptide solution was injected i.p. once a day at peptide doses 10-20 mg/kg. PBS solution was injected as control. […] The microvessel density was determined by screening the immunohistologically stained CD31 sections. Inhibition of LEC migration in the ACEA migration assay also was determined (see FIG. 33B).

Test [3] has as its system rho/VEGF (V6) mouse. Nature of the test: rho/VEGF (V6) mouse, genetic model of wet age-related macular degeneration. The class given is in vivo, mice. As to conditions: 8 weeks after injection. An excerpt:
Referring now to FIG. 49 in shown the in vivo effects of microparticle formulations in both the CNV and rho/VEGF model over time. DEAH (SP6001)-336 PBAE nanoparticle formulation made as described previously (“DEAH” disclosed as SEQ ID NO: 2484). […] (Middle) and (Bottom) A genetic model of wet form of age-related macular degeneration in mice used to test long-term effect of microparticles. […] While PLGA is used to form the microparticles used above, other polymers may be used including the synthetic polyesters and polyamides described above. In certain embodiments, blends of these polymer are combined with PLGA to form microparticles with differing environmental sensitivity and release properties; (a) the effect of microparticle (SP-6001) in CNV model mouse; (b) the effect of microparticle (SP-6001) in rho/VEGF (V6) mouse, 1 week after injection; and (c) the effect of microparticle (SP-6001) in rho/VEGF (V6) mouse, 8 weeks after injection.

Test [4] relates to endothelial cells. Nature of the test: Endothelial cell proliferation, peptides encapsulated in polymeric particles vs free peptides. The class given is cell-based. The settings on record: encapsulated within polymeric particles compared to unencapsulated. From the text:
Changes to polymer structure, including small changes to the ends of the polymer only, can vary biophysical properties of these particles. These properties can be important to tune for effective in vivo peptide delivery. A small subset of the potential polymer library was screened to measure the effect of encapsulating the antiangiogenic peptides chemokinostatin-1 and pentastatin-1 within polymeric particles compared to unencapsulated, free peptides. […] An example of representative polymers encapsulating peptides is provided in Scheme 5.

Test [5] concerns endothelial cells. Nature of the test: Anti-proliferative and anti-migratory activity of free peptides on endothelial cells. The class given is cell-based. From the text: Several classes of peptides have been developed that show either anti-proliferative or anti-migratory activity or both on endothelial cells. These peptides appear to function through distinct mechanisms of action and have been tested both in vitro and in vivo in tumor xenografts and in ocular mouse models.
(§1) It is believed that this peptide is the first antilymphangiogenic peptide agent.

The subject of test [6] is lymphatic endothelial cells. Nature of the test: Anti-proliferative and anti-migratory activity of free peptides on lymphatic endothelial cells. It counts as cell-based.
Description: as §1

With “EIELVEEEPPF [SP6001, 11-mer anti-angiogenic peptide derived from the serpin domain of DEAH box polypeptide]”, the “angiogenesis in the eye” value in test [1] is on record as “significantly reduced angiogenesis”. Further, the tumor xenograft growth result in test [2] was “significant inhibition”. In test [3], the inhibition of angiogenesis result is listed as “no longer inhibits angiogenesis”.

Regarding “NGRKACLNPASPIVKKIIEKMLNS [Chemokinostatin]”, the “inhibition of endothelial cell proliferation” value in test [4] is on record as “enhanced the ability of the peptides to inhibit the proliferation of endothelial cells”.

Turning to “LRRFSTMPFMF-Abu-NINNV-Abu-NF (LRRFSTMPFMF[Abu]NINNV[Abu]NF; listed as Homo sapiens) [SP2012]”, in test [5], the “anti-proliferative and anti-migratory activity” value was “highly potent anti-proliferative and anti-migratory”.

Regarding LLRISLLLIESWLE [SP5033], the “anti-proliferative and anti-migratory activity” value in test [6] is “anti-proliferative and anti-migratory activity”; in test [5], “anti-proliferative and anti-migratory activity”.

Consider LRRFSTMPFMFCNINNVCNF [Pentastatin], for which, in test [4], the “inhibition of endothelial cell proliferation” value is “enhanced the ability of the peptides to inhibit the proliferation of endothelial cells”.
